From paper PMC4684330, “Potentiation of Neuronal Nicotinic Receptors by 17β-Estradiol: Roles of the Carboxy-Terminal and the Amino-Terminal Extracellular Domains” (PLoS ONE, 2015)
Where two headings read alike, the source gives them in different places.

What was measured:
α(2.2.4.W)&β2(WLAGMI) = tested on: T1, α(2.2.4.W)&β2(WLAGMI); assay: two-electrode voltage clamp, agonist activation, Hill fit; type: cell-based, Mus musculus; Homo sapiens; conditions: no steroid, pH 7.3, Ba2+ saline, cRNA 8:1, read-out: ACh EC50
T1 construct: gene Chrna2
Source text: two-electrode voltage clamp, agonist activation, Hill fit on α(2.2.4.W)&β2(WLAGMI)

α(4.4.2.F)&β4 = tested on: T2, α(4.4.2.F)&β4; assay: as above; type: cell-based, Homo sapiens; Mus musculus; conditions: no steroid, pH 7.3, Ba2+ saline, cRNA 20:1, read-out: ACh EC50
T2 construct: gene CHRNA4; alpha4 and alpha2 parts are one polypeptide: alpha4 to D(571)RIFL, alpha2 TM4, tail FLAGMI; cRNA 20:1, oocytes, 3alpha:2beta
Source text: two-electrode voltage clamp, agonist activation, Hill fit on α(4.4.2.F)&β4

α(2.4.4.W)&β4 = tested on: T3, α(2.4.4.W)&β4; assay: as above; type: cell-based, Mus musculus; Homo sapiens; conditions: no steroid, pH 7.3, Ba2+ saline, cRNA 20:1, read-out: ACh EC50
T3 construct: gene Chrna2; alpha2 N-terminal domain and alpha4 remainder are one polypeptide, tail WLAGMI; cRNA 20:1, oocytes, 3alpha:2beta
Source text: two-electrode voltage clamp, agonist activation, Hill fit on α(2.4.4.W)&β4

α(4.4.2.F)&β2(WLAGMI) = tested on: T4, α(4.4.2.F)&β2(WLAGMI); assay: as above; type: cell-based, Homo sapiens; Mus musculus; conditions: no steroid, pH 7.3, Ba2+ saline, cRNA 8:1, read-out: ACh EC50
T4 construct: gene CHRNA4
Source text: two-electrode voltage clamp, agonist activation, Hill fit on α(4.4.2.F)&β2(WLAGMI)

α(4.4.2.F)&β2 = tested on: T5, α(4.4.2.F)&β2; assay: as above; type: cell-based, Homo sapiens; Mus musculus; conditions: no steroid, pH 7.3, Ba2+ saline, cRNA 8:1, read-out: ACh EC50
T5 construct: gene CHRNA4; one alpha polypeptide: alpha4 to D(571)RIFL, alpha2 TM4, tail FLAGMI; with wild-type beta2, cRNA 8:1, oocytes, 3alpha:2beta
Source text: two-electrode voltage clamp, agonist activation, Hill fit on α(4.4.2.F)&β2

α4&β4 20:1 [1] = target: T6, α4&β4 20:1 (Homo sapiens, UniProt P43681+Q8R493, P43681:L623W/P43681:W622F); assay: cell-based
T6 construct: gene CHRNA4
Source text: (§1) two-electrode voltage clamp, agonist activation, Hill fit on α4&β4 20:1

α4&β4 20:1 [2] = target: T7, α4&β4 20:1 (Homo sapiens, UniProt P43681+Q8R493, P43681:W622K); assay: cell-based
T7 construct: gene CHRNA4
Source text: as §1

α2(W)(α4DtoA)&β4 = tested on: T8, α2(W)(α4DtoA)&β4; assay: two-electrode voltage clamp, agonist activation, Hill fit; type: cell-based, Mus musculus; Homo sapiens; conditions: no steroid, pH 7.3, Ba2+ saline, cRNA 20:1, read-out: ACh EC50
T8 construct: gene Chrna2; one alpha polypeptide: alpha2(W) carrying alpha4 MMT(57)-IVL(97); cRNA 20:1, oocytes, 3alpha:2beta
Source text: two-electrode voltage clamp, agonist activation, Hill fit on α2(W)(α4DtoA)&β4

α(4.2.2.F)&β4 = tested on: T9, α(4.2.2.F)&β4; assay: as above; type: cell-based, Homo sapiens; Mus musculus; conditions: no steroid, pH 7.3, Ba2+ saline, cRNA 20:1, read-out: ACh EC50
T9 construct: gene CHRNA4; alpha4 and alpha2 parts are one polypeptide: alpha4 N-terminus to V(210)IRRLP, rest alpha2 (TM1-TM3 identical), tail FLAGMI; cRNA 20:1, oocytes, 3alpha:2beta
Source text: two-electrode voltage clamp, agonist activation, Hill fit on α(4.2.2.F)&β4

α(2.2.4.W)&β4 = tested on: T10, α(2.2.4.W)&β4; assay: as above; type: cell-based, Mus musculus; Homo sapiens; conditions: no steroid, pH 7.3, Ba2+ saline, cRNA 20:1, read-out: ACh EC50
T10 construct: gene Chrna2; alpha2 to start of TM4 and alpha4 TM4 are one polypeptide, tail WLAGMI; cRNA 20:1, oocytes, 3alpha:2beta
Source text: two-electrode voltage clamp, agonist activation, Hill fit on α(2.2.4.W)&β4

α(2.2.4.W)&β2 = tested on: T11, α(2.2.4.W)&β2; assay: as above; type: cell-based, Mus musculus; Homo sapiens; conditions: no steroid, pH 7.3, Ba2+ saline, cRNA 8:1, read-out: ACh EC50
T11 construct: gene Chrna2; one alpha polypeptide: alpha2 to start of TM4, alpha4 TM4, tail WLAGMI; with wild-type beta2, cRNA 8:1, oocytes, 3alpha:2beta
Source text: two-electrode voltage clamp, agonist activation, Hill fit on α(2.2.4.W)&β2

α4(α2DtoA)&β4 [3] = tested on: T12, α4(α2DtoA)&β4; assay: as above; type: cell-based, Homo sapiens; Mus musculus; conditions: no steroid, pH 7.3, Ba2+ saline, cRNA 20:1, read-out: ACh EC50
T12 construct: gene CHRNA4; cRNA 20:1, oocytes, 3alpha:2beta

α4(α2DtoA)&β4 [4] = tested on: T12, α4(α2DtoA)&β4; assay: as above; type: cell-based, Homo sapiens; Mus musculus; conditions: no steroid, pH 7.3, Ba2+ saline, cRNA 20:1, read-out: ACh EC50; remark: listed apart in the source
α(4.4.2.W)&β4 = tested on: T13, α(4.4.2.W)&β4; assay: as above; type: cell-based, Homo sapiens; Mus musculus; conditions: no steroid, pH 7.3, Ba2+ saline, cRNA 20:1, read-out: ACh EC50
T13 construct: gene CHRNA4; one alpha polypeptide: alpha4 to D(571)RIFL, alpha2 TM4, tail WLAGMI (W as in alpha4); cRNA 20:1, oocytes, 3alpha:2beta
Source text: two-electrode voltage clamp, agonist activation, Hill fit on α(4.4.2.W)&β4

α4(F)(α2DtoA+E)&β4 = tested on: T14, α4(F)(α2DtoA+E)&β4; assay: as above; type: cell-based, Homo sapiens; Mus musculus; conditions: no steroid, pH 7.3, Ba2+ saline, cRNA 20:1, read-out: ACh EC50
T14 construct: gene CHRNA4; cRNA 20:1, oocytes, 3alpha:2beta

α4&β4 1:10 = target: T15, α4&β4 1:10 (Homo sapiens, UniProt P43681+Q8R493); assay: as above; type: cell-based; conditions: read-out: ACh EC50
T15 construct: gene CHRNA4; full coding regions, cRNA 1:10 alpha:beta in Xenopus oocytes

α4&β4 20:1 [5] = target: T16, α4&β4 20:1 (Homo sapiens, UniProt P43681+Q8R493, P43681:W622F); assay: two-electrode voltage clamp, potentiation of ACh current, Hill fit; type: cell-based; conditions: with ACh giving about 5-7% of maximal; pH 7.3, Ba2+ saline; allosteric potentiator; paper urges circumspection (solubility, block at high concentrations)
T16 construct: gene CHRNA4; full coding regions, cRNA 20:1 alpha:beta in Xenopus oocytes, pentamer 3alpha:2beta, mixed species

α4&β4 20:1 [6] = target: T17, α4&β4 20:1 (Homo sapiens, UniProt P43681+Q8R493); assay: as above; type: cell-based; conditions: with ACh giving about 5-7% of maximal; pH 7.3, Ba2+ saline; allosteric potentiator; paper urges circumspection (solubility, block at high concentrations)
T17 construct: gene CHRNA4; full coding regions, cRNA 20:1 alpha:beta in Xenopus oocytes, pentamer 3alpha:2beta, mixed species
T17 sequence (P43681 27-627): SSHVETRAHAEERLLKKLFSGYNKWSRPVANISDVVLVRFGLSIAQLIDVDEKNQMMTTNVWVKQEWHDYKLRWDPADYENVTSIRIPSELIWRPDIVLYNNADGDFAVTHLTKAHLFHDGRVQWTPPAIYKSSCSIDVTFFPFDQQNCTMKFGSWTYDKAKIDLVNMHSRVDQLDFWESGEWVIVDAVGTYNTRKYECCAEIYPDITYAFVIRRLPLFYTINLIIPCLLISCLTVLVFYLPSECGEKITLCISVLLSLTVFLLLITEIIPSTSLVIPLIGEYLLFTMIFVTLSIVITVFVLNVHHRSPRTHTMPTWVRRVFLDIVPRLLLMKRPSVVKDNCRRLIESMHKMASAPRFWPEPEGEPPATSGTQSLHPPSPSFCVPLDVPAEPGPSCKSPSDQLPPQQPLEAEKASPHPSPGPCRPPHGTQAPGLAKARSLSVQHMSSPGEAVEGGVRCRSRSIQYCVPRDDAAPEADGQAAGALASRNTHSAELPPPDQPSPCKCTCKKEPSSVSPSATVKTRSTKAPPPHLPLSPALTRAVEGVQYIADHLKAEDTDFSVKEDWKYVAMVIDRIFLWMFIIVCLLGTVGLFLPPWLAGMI
T17 sequence (Q8R493 21-495): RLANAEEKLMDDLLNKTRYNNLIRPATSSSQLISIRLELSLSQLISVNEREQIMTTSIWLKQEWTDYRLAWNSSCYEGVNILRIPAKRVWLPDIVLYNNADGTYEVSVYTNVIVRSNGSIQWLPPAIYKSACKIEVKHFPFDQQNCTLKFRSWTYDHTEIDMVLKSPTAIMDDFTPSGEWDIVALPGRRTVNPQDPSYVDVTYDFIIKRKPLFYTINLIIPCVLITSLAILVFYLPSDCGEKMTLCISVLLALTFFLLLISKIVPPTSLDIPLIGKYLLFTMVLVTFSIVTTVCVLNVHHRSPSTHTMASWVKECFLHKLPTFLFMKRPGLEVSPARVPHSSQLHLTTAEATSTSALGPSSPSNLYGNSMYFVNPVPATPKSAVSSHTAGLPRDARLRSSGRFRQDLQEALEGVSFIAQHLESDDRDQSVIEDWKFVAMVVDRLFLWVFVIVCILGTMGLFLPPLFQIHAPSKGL

T15 sequence (P43681 27-627): as the sequence (P43681 27-627) above
T15 sequence (Q8R493 21-495): as the sequence (Q8R493 21-495) above
T16 sequence (P43681 27-627 W622F): as the sequence (P43681 27-627) above, with W596F counted along it
T16 sequence (Q8R493 21-495): as the sequence (Q8R493 21-495) above
T7 sequence (P43681 27-627 W622K): as the sequence (P43681 27-627) above, with W596K counted along it
T7 sequence (Q8R493 21-495): as the sequence (Q8R493 21-495) above
T6 sequence (P43681 27-627 W622F/L623W): as the sequence (P43681 27-627) above, with W596F, L597W counted along it
T6 sequence (Q8R493 21-495): as the sequence (Q8R493 21-495) above

CC(=O)OCC[N+](C)(C)C [acetylcholine chloride]
EC50 (α(2.2.4.W)&β2(WLAGMI)): […] | EC50 (α(4.4.2.F)&β4): […] | EC50 (α(2.4.4.W)&β4): […] | EC50 (α(4.4.2.F)&β2(WLAGMI)): […] | EC50 (α(4.4.2.F)&β2): […] | EC50 (α4&β4 20:1 [1]): 14 ± 1 µM | EC50 (α4&β4 20:1 [2]): 14 ± 2 µM | EC50 (α2(W)(α4DtoA)&β4): […] | EC50 (α(4.2.2.F)&β4): […] | EC50 (α(2.2.4.W)&β4): […] | EC50 (α(2.2.4.W)&β2): […] | EC50 (α4(α2DtoA)&β4 [3]): […] | EC50 (α4(α2DtoA)&β4 [4]): 73 ± 4 µM | EC50 (α(4.4.2.W)&β4): […] | EC50 (α4(F)(α2DtoA+E)&β4): 16 ± 2 µM | EC50 (α4&β4 1:10): 14 ± 2.4 µM

19-norpregna-1,3,5(10)-trien-20-yne-3,17-diol, (17α)-(9CI) [17α-vinyl estradiol]
EC50 (α4&β4 20:1 [5]): 7.32 ± 0.68 µM | EC50 (α4&β4 20:1 [6]): 3.84 ± 0.27 µM
